Measured values taken from patent US5527781A, “4-O-(aminoglycosyl)- or 4,6-di-O-(aminoglycosyl)-2,5-dideoxy-5,5-difluorostreptamine derivatives” (Zaidan Hojin Biseibutsu Kagaku Kenkyu Kai, priority 1990, dated 1996).
≈ marks a conversion by molar mass, not a printed value. Read-outs that look alike come from different tables or passages of the source.

Key:
bacteria = settings: literature / earlier filings; cited from earlier work
Mycobacterium 607 = test: MIC, standard serial dilution method; format: cell-based; settings: Mueller-Hinton agar, 37° C
Escherichia coli JR225 = test: microbe, parasite or virus in culture; format: cell-based; settings: resistance mechanism AAC(3), Mueller-Hinton agar, 37° C
[1] = tested on: Escherichia coli K-12 ML 1629; test: microbe, parasite or virus in culture; format: cell-based; settings: K12ML1629
Bacillus subtilis PCI219 = test: MIC, standard serial dilution method; format: cell-based; settings: Mueller-Hinton agar, 37° C
Escherichia coli K-12 = test: MIC, standard serial dilution method; format: cell-based; settings: K12
in vivo = settings: mouse, iv, pH 7
Excerpt: Further, in order to estimate acute toxicity of the compound of the general formula (I) according to this invention, some examples of the compounds of this invention were independently dissolved in water to prepare aqueous solutions (as adjusted to pH 7 by addition of hydrochloric acid). […] The tested compounds of this invention are expressed by the same abbreviations as in Table 1. […] The comparative compounds as tested are also expressed by the same abbreviations as in Table 1.

Providencia sp. Pv 16 = test: MIC, standard serial dilution method; format: cell-based; settings: SP.PV16, resistance mechanism AAC(2'), Mueller-Hinton agar, 37° C
[2] = tested on: Staphylococcus aureus 209P; test: MIC, standard serial dilution method; format: cell-based; settings: Mueller-Hinton agar, 37° C
[3] = tested on: Pseudomonas aeruginosa GN 315; test: MIC, standard serial dilution method; format: cell-based; settings: GN315; Pseudomonas aeruginosa GN 315; resistance mechanism AAC(6'); Mueller-Hinton agar, 37° C; read-out: MIC
Proteus rettgeri GN 311 = test: MIC, standard serial dilution method; format: cell-based; settings: Providencia rettgeri, GN311
Escherichia coli K-12 R5 = test: microbe, parasite or virus in culture; format: cell-based; settings: K12R5
[4] = tested on: Corynebacterium bovis 1810; test: MIC, standard serial dilution method; format: cell-based; settings: Mueller-Hinton agar, 37° C
[5] = tested on: Pseudomonas aeruginosa A3; test: MIC, standard serial dilution method; format: cell-based; settings: Mueller-Hinton agar, 37° C
[6] = tested on: Escherichia coli K-12 LA 290 R55; test: microbe, parasite or virus in culture; format: cell-based; settings: K12LA290R55
[7] = tested on: Escherichia coli JR66/W677; test: microbe, parasite or virus in culture; format: cell-based; settings: resistance mechanism APH(3')-II, ANT(2"), Mueller-Hinton agar, 37° C
[8] = tested on: Klebsiella pneumoniae 22#3038; test: MIC, standard serial dilution method; format: cell-based; settings: resistance mechanism APH(3')-II, ANT(2"), Mueller-Hinton agar, 37° C
[9] = tested on: Staphylococcus aureus Ap01; test: MIC, standard serial dilution method; format: cell-based; settings: resistance mechanism ANT(4'), Mueller-Hinton agar, 37° C
Serratia marcescens = test: MIC, standard serial dilution method; format: cell-based; settings: Mueller-Hinton agar, 37° C
[10] = Proteus rettgeri GN 311, Mueller-Hinton agar, 37° C, read-out: MIC
[11] = Escherichia coli K-12 R5, resistance mechanism AAC(6'), Mueller-Hinton agar, 37° C
[12] = Escherichia coli K-12 LA 290 R55, resistance mechanism ANT(2"), Mueller-Hinton agar, 37° C
[13] = Escherichia coli K-12, Mueller-Hinton agar, 37° C, read-out: MIC
[14] = Escherichia coli K-12 ML 1629, resistance mechanism APH(3')-I, Mueller-Hinton agar, 37° C, read-out: MIC

| SMILES | MIC (Mycobacterium 607) [µg/mL] | MIC (Escherichia coli JR225) [µg/mL] | MIC (Bacillus subtilis PCI219) [µg/mL] | LD50 (in vivo) [mg/kg] | MIC (Providencia sp. Pv 16) [µg/mL] | MIC [2] [µg/mL] | MIC [3] [µg/mL] | MIC (Proteus rettgeri GN 311; [10]) [µg/mL] | MIC (Escherichia coli K-12 R5; [11]) [µg/mL] | MIC [4] [µg/mL] | MIC [5] [µg/mL] | MIC [6, 12] [µg/mL] | MIC [7] [µg/mL] | MIC [8] [µg/mL] | MIC [9] [µg/mL] | MIC (Serratia marcescens) [µg/mL] | MIC (Escherichia coli K-12; [13]) [µg/mL] | MIC [1, 14] [µg/mL] | other results |
| --- | --- | --- | --- | --- | --- | --- | --- | --- | --- | --- | --- | --- | --- | --- | --- | --- | --- | --- | --- |
| NC[C@H]1O[C@H](O[C@H]2[C@H](O)[C@@H](O[C@H]3O[C@H](CO)[C@@H](O)[C@H](N)[C@H]3O)[C@H](N)C[C@@H]2N)[C@H](F)C[C@@H]1O [2',3'-dideoxy-2'-fluorokanamycin A] |  |  |  |  |  |  |  |  |  |  |  |  |  |  |  |  |  |  | antibacterial activity compared with parent (e.g. kanamycin A) (bacteria): improved antibacterial activities, as compared to those of their corresponding parent compounds |
| NC[C@@H]1C[C@H](F)[C@@H](N)[C@@H](O[C@H]2[C@H](O)[C@@H](O[C@H]3O[C@H](CO)[C@@H](O)[C@H](N)[C@H]3O)[C@H](N)C[C@@H]2N)O1 [3',4'-dideoxy-3'-fluorokanamycin B] |  |  |  |  |  |  |  |  |  |  |  |  |  |  |  |  |  |  | antibacterial activity compared with parent (e.g. kanamycin A) (bacteria): improved antibacterial activities, as compared to those of their corresponding parent compounds |
| CN[C@@H]1[C@@H](O)[C@@H](O[C@H]2[C@H](N)C[C@H](N)[C@@H](O[C@H]3O[C@H]([C@@H](C)N)CC[C@H]3N)C2(F)F)OC[C@]1(C)O [Compound 5FF-Genta-C2, 5-deoxy-5,5-difluorogentamicin C2] | 0.78 (≈ 1.61 µM) | 6.25 (≈ 12.9 µM) | 0.2 (≈ 0.414 µM) | ~230 | 6.25 (≈ 12.9 µM) | 0.78 (≈ 1.61 µM) | 25 (≈ 51.7 µM) | 0.78 (≈ 1.61 µM) | 1.56 (≈ 3.23 µM) | 0.78 (≈ 1.61 µM) | 1.56 (≈ 3.23 µM) | 3.12 (≈ 6.45 µM) | 3.12 (≈ 6.45 µM) | 1.56 (≈ 3.23 µM) | 6.25 (≈ 12.9 µM) | 0.78 (≈ 1.61 µM) |  |  | MIC ([1]; Escherichia coli): 0.78 µg/mL (≈ 1.61 µM); MIC (Escherichia coli K-12; Escherichia coli): 0.78 µg/mL (≈ 1.61 µM) |
| NC[C@H]1O[C@H](O[C@@H]2[C@@H](N)C[C@@H](N)[C@H](O[C@H]3O[C@H](CO)[C@@H](O)[C@H](N)[C@H]3O)C2(F)F)[C@H](N)C[C@@H]1O [Compound 5FF-TOB, 5-deoxy-5,5-difluorotobramycin] | 0.39 (≈ 0.8 µM) | 0.39 (≈ 0.8 µM) | 0.39 (≈ 0.8 µM) | 260 | 12.5 (≈ 25.6 µM) | 0.39 (≈ 0.8 µM) | 100 (≈ 205 µM) | < 0.2 | 25 (≈ 51.3 µM) | 1.56 (≈ 3.2 µM) | < 0.2 |  | 1.56 (≈ 3.2 µM) | 0.78 (≈ 1.6 µM) | 25 (≈ 51.3 µM) | 3.12 (≈ 6.4 µM) | 0.39 (≈ 0.8 µM) |  | MIC ([1]; Escherichia coli): 0.78 µg/mL (≈ 1.6 µM); MIC ([6]; Escherichia coli): 0.78 µg/mL (≈ 1.6 µM) |
| NCC[C@H](O)C(=O)N[C@@H]1C[C@H](N)[C@@H](O[C@H]2O[C@H](CN)[C@@H](O)C[C@H]2N)C(F)(F)[C@H]1O[C@H]1O[C@H](CO)[C@@H](O)[C@H](N)[C@H]1O [Compound 5FF-TOB-AHB, 1-N-[(S)-4-amino-2-hydroxybutyryl]-5-deoxy-5,5-difluorotobramycin] | 0.39 (≈ 0.663 µM) | < 0.2 | < 0.2 | > 300 | 0.78 (≈ 1.33 µM) | 0.39 (≈ 0.663 µM) | 6.25 (≈ 10.6 µM) | 0.39 (≈ 0.663 µM) | 3.12 (≈ 5.3 µM) | < 0.2 | 0.78 (≈ 1.33 µM) | < 0.2 | 0.39 (≈ 0.663 µM) | 0.78 (≈ 1.33 µM) | 3.12 (≈ 5.3 µM) | 1.56 (≈ 2.65 µM) | < 0.2 | 0.39 (≈ 0.663 µM) |  |
| NCC[C@H](O)C(=O)N[C@@H]1C[C@H](N)[C@@H](O[C@H]2O[C@H](CN)[C@@H](O)[C@H](O)[C@H]2O)C(F)(F)[C@H]1O[C@H]1O[C@H](CO)[C@@H](O)[C@H](N)[C@H]1O [Compound 5FF-amikacin, 1-N-[(S)-4-amino-2-hydroxybutyryl]-5-deoxy-5,5-difluorokanamycin A] | 3.12 (≈ 5.15 µM) | 0.39 (≈ 0.644 µM) | 1.56 (≈ 2.58 µM) | > 300 | 3.12 (≈ 5.15 µM) | 3.12 (≈ 5.15 µM) | > 100 | 1.56 (≈ 2.58 µM) | 25 (≈ 41.3 µM) | 3.12 (≈ 5.15 µM) | 3.12 (≈ 5.15 µM) | 3.12 (≈ 5.15 µM) | 3.12 (≈ 5.15 µM) | 6.25 (≈ 10.3 µM) | > 100 | 6.25 (≈ 10.3 µM) | 1.56 (≈ 2.58 µM) | 3.12 (≈ 5.15 µM) |  |
| CN[C@@H]1[C@@H](O)[C@@H](O[C@@H]2[C@@H](O)[C@H](O[C@H]3O[C@H]([C@@H](C)NC)CC[C@H]3N)[C@@H](N)C[C@H]2N)OC[C@]1(C)O [Genta-C1, gentamicin C1, reference compound] | 3.12 (≈ 6.53 µM) | 25 (≈ 52.3 µM) | < 0.2 | ~70 | 25 (≈ 52.3 µM) | < 0.2 | 6.25 (≈ 13.1 µM) |  |  | 0.39 (≈ 0.817 µM) | 0.78 (≈ 1.63 µM) | 12.5 (≈ 26.2 µM) | 12.5 (≈ 26.2 µM) | 12.5 (≈ 26.2 µM) | 0.78 (≈ 1.63 µM) | 0.78 (≈ 1.63 µM) | 0.2 (≈ 0.419 µM) | 0.39 (≈ 0.817 µM) | MIC (Proteus rettgeri GN 311): 0.78 µg/mL (≈ 1.63 µM); MIC (Escherichia coli K-12 R5; Escherichia coli): 0.78 µg/mL (≈ 1.63 µM) |
| CN[C@@H]1[C@@H](O)[C@@H](O[C@@H]2[C@@H](O)[C@H](O[C@H]3O[C@H]([C@@H](C)N)CC[C@H]3N)[C@@H](N)C[C@H]2N)OC[C@]1(C)O [Genta-C2, gentamicin C2, reference compound] | 1.56 (≈ 3.37 µM) | 6.25 (≈ 13.5 µM) | < 0.2 | ~90 | 6.25 (≈ 13.5 µM) | < 0.2 | 3.12 (≈ 6.73 µM) | 0.2 (≈ 0.431 µM) | 1.56 (≈ 3.37 µM) | 0.39 (≈ 0.841 µM) | 0.39 (≈ 0.841 µM) | 12.5 (≈ 27 µM) | 25 (≈ 53.9 µM) | 12.5 (≈ 27 µM) | 0.78 (≈ 1.68 µM) | 0.78 (≈ 1.68 µM) | < 0.2 | 0.39 (≈ 0.841 µM) |  |
| CCN[C@@H]1C[C@H](N)[C@@H](O[C@H]2OC(CN)=CC[C@H]2N)[C@H](O)[C@H]1O[C@H]1OC[C@](C)(O)[C@H](NC)[C@H]1O [Netilmicin, netilmicin, reference compound] | 1.56 (≈ 3.28 µM) | 12.5 (≈ 26.3 µM) | < 0.2 | 30 | 6.25 (≈ 13.1 µM) | < 0.2 | > 100 | 0.39 (≈ 0.82 µM) | 50 (≈ 105 µM) | 1.56 (≈ 3.28 µM) | 0.39 (≈ 0.82 µM) | 0.39 (≈ 0.82 µM) | 0.39 (≈ 0.82 µM) | 0.39 (≈ 0.82 µM) | 0.78 (≈ 1.64 µM) | 6.25 (≈ 13.1 µM) | < 0.2 | 0.39 (≈ 0.82 µM) |  |
